Results reported in ChEMBL document CHEMBL3797202, “Novel Oxindole Sulfonamides and Sulfamides: EPZ031686, the First Orally Bioavailable Small Molecule SMYD3 Inhibitor” (ACS Med Chem Lett, 2016).

How the values were obtained:
[1] = target: T1, Histone-lysine N-methyltransferase EHMT2 (Homo sapiens) (UniProt Q96KQ7); experiment: Inhibition of EHMT2 (unknown origin) at 10 uM relative to control
T1 sequence (whole entry): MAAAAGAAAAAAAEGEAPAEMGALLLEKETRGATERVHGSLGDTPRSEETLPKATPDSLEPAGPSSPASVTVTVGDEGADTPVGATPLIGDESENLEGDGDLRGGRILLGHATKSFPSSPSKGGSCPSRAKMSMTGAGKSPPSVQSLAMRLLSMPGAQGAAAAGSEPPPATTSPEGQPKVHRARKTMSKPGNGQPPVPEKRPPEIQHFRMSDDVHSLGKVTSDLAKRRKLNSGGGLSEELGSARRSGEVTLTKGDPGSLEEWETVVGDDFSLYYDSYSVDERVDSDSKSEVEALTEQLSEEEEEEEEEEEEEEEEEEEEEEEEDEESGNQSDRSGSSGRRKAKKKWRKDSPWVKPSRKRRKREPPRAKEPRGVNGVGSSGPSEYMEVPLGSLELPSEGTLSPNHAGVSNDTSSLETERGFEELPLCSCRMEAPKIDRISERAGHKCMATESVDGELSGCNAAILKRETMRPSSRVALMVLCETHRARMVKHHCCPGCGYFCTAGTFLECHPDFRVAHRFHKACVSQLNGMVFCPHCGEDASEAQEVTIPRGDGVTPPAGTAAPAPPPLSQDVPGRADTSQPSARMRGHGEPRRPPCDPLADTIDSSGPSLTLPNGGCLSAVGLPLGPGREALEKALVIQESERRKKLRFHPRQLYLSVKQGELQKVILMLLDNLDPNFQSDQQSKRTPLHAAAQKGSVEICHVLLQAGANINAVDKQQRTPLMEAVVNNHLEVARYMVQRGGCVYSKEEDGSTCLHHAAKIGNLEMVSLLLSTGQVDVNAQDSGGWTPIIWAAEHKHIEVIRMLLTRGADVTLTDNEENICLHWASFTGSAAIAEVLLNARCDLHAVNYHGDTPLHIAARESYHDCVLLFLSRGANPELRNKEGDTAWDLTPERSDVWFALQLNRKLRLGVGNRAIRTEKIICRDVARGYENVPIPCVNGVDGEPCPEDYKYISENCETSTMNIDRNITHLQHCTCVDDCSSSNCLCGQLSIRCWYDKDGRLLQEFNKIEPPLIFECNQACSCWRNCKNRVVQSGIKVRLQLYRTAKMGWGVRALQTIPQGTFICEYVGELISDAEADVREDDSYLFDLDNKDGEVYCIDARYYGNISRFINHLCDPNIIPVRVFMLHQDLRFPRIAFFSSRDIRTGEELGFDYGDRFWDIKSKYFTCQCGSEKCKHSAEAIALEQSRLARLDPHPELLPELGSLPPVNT

[2] = target: T2, Histone-lysine N-methyltransferase NSD3 (Homo sapiens) (UniProt Q9BZ95); experiment: Inhibition of WHSC1L1 (unknown origin) at 10 uM relative to control
T2 sequence (whole entry): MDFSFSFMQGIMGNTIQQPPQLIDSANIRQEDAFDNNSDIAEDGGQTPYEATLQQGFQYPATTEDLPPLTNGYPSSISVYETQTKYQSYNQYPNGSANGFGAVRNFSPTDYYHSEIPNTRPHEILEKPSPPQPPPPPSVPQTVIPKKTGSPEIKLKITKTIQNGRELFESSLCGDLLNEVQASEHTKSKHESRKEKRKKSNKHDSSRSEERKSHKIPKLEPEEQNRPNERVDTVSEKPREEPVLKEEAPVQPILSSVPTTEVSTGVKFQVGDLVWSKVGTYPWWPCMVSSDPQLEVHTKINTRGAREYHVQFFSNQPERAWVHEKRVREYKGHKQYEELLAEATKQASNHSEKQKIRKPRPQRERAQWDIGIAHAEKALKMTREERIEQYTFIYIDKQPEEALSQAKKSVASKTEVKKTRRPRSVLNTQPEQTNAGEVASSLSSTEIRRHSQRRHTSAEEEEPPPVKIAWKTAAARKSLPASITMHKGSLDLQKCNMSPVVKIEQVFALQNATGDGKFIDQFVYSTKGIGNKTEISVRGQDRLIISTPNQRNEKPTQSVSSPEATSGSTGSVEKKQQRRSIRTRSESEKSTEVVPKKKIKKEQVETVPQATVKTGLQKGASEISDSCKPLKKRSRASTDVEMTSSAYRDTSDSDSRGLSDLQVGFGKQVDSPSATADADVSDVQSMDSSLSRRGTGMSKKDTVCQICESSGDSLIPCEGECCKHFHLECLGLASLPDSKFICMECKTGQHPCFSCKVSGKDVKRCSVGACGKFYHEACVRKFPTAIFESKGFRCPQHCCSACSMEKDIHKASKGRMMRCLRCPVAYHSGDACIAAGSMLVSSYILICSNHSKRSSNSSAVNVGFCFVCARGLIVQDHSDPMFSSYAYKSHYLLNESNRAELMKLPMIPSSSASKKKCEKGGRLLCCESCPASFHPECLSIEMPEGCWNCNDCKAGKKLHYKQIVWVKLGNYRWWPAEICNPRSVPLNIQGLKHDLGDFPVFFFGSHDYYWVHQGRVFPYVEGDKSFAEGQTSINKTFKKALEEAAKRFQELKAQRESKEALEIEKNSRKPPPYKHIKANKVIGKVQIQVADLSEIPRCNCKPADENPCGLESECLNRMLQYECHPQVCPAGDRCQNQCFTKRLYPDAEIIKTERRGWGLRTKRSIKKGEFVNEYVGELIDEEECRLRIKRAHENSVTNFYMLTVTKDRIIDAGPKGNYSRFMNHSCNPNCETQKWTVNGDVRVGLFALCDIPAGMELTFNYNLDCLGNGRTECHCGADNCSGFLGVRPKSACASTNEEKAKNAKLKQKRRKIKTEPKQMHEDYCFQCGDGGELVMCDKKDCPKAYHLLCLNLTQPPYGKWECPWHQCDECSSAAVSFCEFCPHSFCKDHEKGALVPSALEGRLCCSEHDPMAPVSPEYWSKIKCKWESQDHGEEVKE

For O=C1Cc2cc(C(=O)N[C@H]3C[C@H]4CC[C@@H](C3)N4S(=O)(=O)N3CCC(NCc4ccccc4)CC3)c(Cl)cc2N1, the inhibition [1] was < 30% and the inhibition [2] was < 30%.

O=C1Cc2cc(C(=O)N[C@H]3C[C@H]4CC[C@@H](C3)N4S(=O)(=O)CC3CCN(CCCC(F)(F)F)CC3)c(Cl)cc2N1 was tested, and the inhibition [1] was < 30% and the inhibition [2] was < 30%.
